Measurements from patent US9976183B2, “Biomarkers for cancers responsive to modulators of HEC1 activity” (TAIVEX THERAPEUTICS CORPORATION, priority 2011, dated 2018).
Values joined by “and” are separate entries in the source; they are usually repeats but may differ in a detail not shown here. Identical values can stand only once.

How the values were obtained:
Format in all cases: cell-based
PCL/PRF/5 = test: Synergy of Hec1 inhibitor with cytotoxic drug (combination index, MTS); parameters: key: CI = (CA,X/ICx,A)+(CB,X/ICx,B) at x% drug effect
Protocol: (§1) Synergy: GI50s for selected drugs were determined and used to calculate a concentration ratio for use synergy assays with Hec1 inhibitors. Cells were treated with drugs 24 hours after being seeded in appropriate seeding numbers into 96 well plates containing low glucose DME with 10% FBS. […] Cell viability was determined by MTS assay using a CellTiter 96® Aqueous non-radioactive cell proliferation assay system (Promega, Madison, Wis. 53711 USA) according to the manufacturer's instructions. Optical density was determined using a Bio-Tek 340 spectrophotometer (Bio-Tek, Winooski, Vt. 05404) and were then processed using Excel (Microsoft, Redmond, Wash. 98052-7329) and GraphPad Prism 5 linear regression software (GraphPad Software, La Jolla, Calif. 92037 USA) to determine concentration-response curves for calculating relative GI50s. Synergy was determined by calculating a combination index value using the formula CI (combination index)=(CA,X/ICx,A)+(CB,X/ICx,B), where CA,X and CB,X are the concentrations of drug A and drug B used in combination to achieve x % drug effect. ICx,A and ICx,B are the concentrations for single agents to achieve the same effect.
(§2) Hec1 inhibitor-responsive cancer cells used for screening were treated with a mixture of Hec1 inhibitor and select anti-cancer drug at appropriate concentration ratios and evaluated for cell viability.

HepG2 = test: as above; parameters: key: CI = (CA,X/ICx,A)+(CB,X/ICx,B) at x% drug effect
Protocol: as §1, §2

K562R = test: Drug sensitivity, MTS assay, drug resistant cell line; conditions: Gleevec resistant myelogenous leukemia
Protocol: (§3) Drug sensitivity: Cell lines were screened for drug sensitivity by treatment with specified drugs 24 hours after seeding in appropriate seeding numbers into 96 well plates containing low glucose DME with 10% FBS. The drug was added to the plate in triplicate wells, and the cells are incubated in drug treated medium for 96 hours before cell viability was determined by MTS assay using CellTiter 96® Aqueous non-radioactive cell proliferation assay system (Promega, Madison, Wis. 53711 USA). The MTS assay was performed according to the manufacturer's instructions. Optical density was measured using a Bio-Tek 340 spectrophotometer (Bio-Tek, Winooski, Vt. 05404) and optical readings were then processed in Excel (Microsoft, Redmond, Wash. 98052-7329) and GraphPad Prism 5 linear regression software (GraphPad Software, La Jolla, Calif. 92037 USA) to determine concentration-response curves for calculating relative GI50s. […] The % growth inhibition of the test drug on cells were calculated as: [1−(Test Value)/(Control Value)]×100; these values were used to plot concentration-response curves, and then analyzed with linear regression software.

NCI/ADR-RES = test: as above; conditions: multi-drug resistant uterine sarcoma
Protocol: as §3

Huh7 [1] = test: Drug sensitivity, MTS cell viability assay (GI50); conditions: Huh7, 96 hours, MTS
Protocol: as §3

K562 [2] = test: Drug sensitivity, MTS cell viability assay (GI50)
Protocol: as §3

MDA-MB-231 = test: Drug sensitivity, MTS cell viability assay (GI50)
Protocol: as §3

MDA-MB-468 = test: Drug sensitivity, MTS cell viability assay (GI50); conditions: Homo sapiens, MDA-MB-468, 96 h
Protocol: as §3

[3] = test system: phosphorylated p73 in HeLa and A549 cells; test: Immunoblots for phosphorylated p73
Protocol: Immunoblots: Cell lysates were by incubation of cells in radioimmunoprecipitation assay (RIPA) buffer (50 mM Tris-HCl, pH7.4, 150 mM NaCl, 1% NP40, 0.25% DOC, 0.1% SDS, 1 mM NaVO4, 1 mM EDTA, 1 ug/ml leupeptin, 1 μg/ml pepstatin) or 2.5× sample buffer (50 mM Tris-HCl, pH6.8, 1% SDS, 2.5% BME, 7.5% Glycerol, Bromophenol blue). Tissue samples were immersed in RIPA buffer, disrupted with a homogenizer, and centrifuged to clarify. Samples were then subjected to SDS-PAGE, blotted onto immunoblotting membranes, and incubated with primary antibodies in 3% BSA-TBST. Horseradish peroxidase—conjugated secondary antibodies were used for protein detection by enhanced chemiluminescence (Millipore, Billerica, Mass. 01821 USA). The following antibodies were used for Western blotting: anti-Rb monoclonal antibody 1F8 (Abcam, Cambridge, Mass. 02139-1517 USA); anti-p53 monoclonal antibody (Santa Cruz Biotechnology, Santa Cruz, Calif. 95060 USA); anti-β-actin monoclonal antibody AC-15 (Sigma Aldrich, St. Louis, Mo., USA).
P73 is a member of the p53-family that mediates apoptosis and replaces p53 function in p53-deficient cells. […] To investigate this, drug-responsive (HeLa) and drug-resistant cells (A549) carrying mutant p53 proteins were treated with Hec1 inhibitor 110095 for varying lengths of time.

Huh7 [4] = test: Synergy of Hec1 inhibitor with cytotoxic drug (combination index, MTS); parameters: key to Combination Index: CI = (CA,X/ICx,A)+(CB,X/ICx,B) at x% drug effect
Protocol: as §1, §2

Hep3B = test: as above; parameters: key to Combination Index: CI = (CA,X/ICx,A)+(CB,X/ICx,B) at x% drug effect
Protocol: as §1, §2

MB-231 = test: as above
Protocol: as §1, §2

K562 [5] = test: as above
Protocol: as §1, §2

MB-468 = test: as above
Protocol: as §1, §2

[6] = in combination with doxorubicin
[7] = in combination with Taxol (paclitaxel)
[8] = in combination with topotecan (187.20 nM), ratio used 3.74

COCCOc1cnc(Sc2cc(C)c(-c3csc(NC(=O)c4ccncc4)n3)c(C)c2)cn1 [compound 110095, N-(4-(4-(5-(2-methoxyethoxy)pyrazin-2-ylthio)-2,6-dimethylphenyl)thiazol-2-yl)isonicotinamide]
Combination Index (PCL/PRF/5; in combination with KX01): 1.08 | Combination Index (PCL/PRF/5; in combination with Taxol): 0.81 | Combination Index (PCL/PRF/5; [6]): 2.31 | Combination Index (PCL/PRF/5; in combination with sorafenib): 1.41 | Combination Index (PCL/PRF/5; in combination with topotecan): 2.83 | Combination Index (HepG2; in combination with KX01): 2.32 | Combination Index (HepG2; [6]): 3.00 | Combination Index (HepG2; in combination with sorafenib): 1.88 | Combination Index (HepG2; in combination with topotecan): 3.03 | GI50 (K562R): 7.27 nM | GI50 (K562R; Homo sapiens, K-562R): 10.4 nM | GI50 (NCI/ADR-RES; Homo sapiens): 19.5 nM | GI50 (NCI/ADR-RES): 10.4 nM | GI50 (Huh7 [1]; Homo sapiens, Huh-7, 96 h): 48.9 nM | GI50 (Huh7 [1]): 35 nM | GI50 (K562 [2]; Homo sapiens, K562, 96 h): 28.2 nM | GI50 (MDA-MB-231; Homo sapiens, MDA-MB-231, 96 h): 16.5 nM | GI50 (MDA-MB-468): 21.1 nM | time of peak p73 phosphorylation after drug treatment ([3]; immunoblot (FIG. 5A)): 48 h | phosphorylation of p73 ([3]; immunoblot, treated for varying lengths of time, 200 nM (FIG. 5A)): induced time-dependent phosphorylation of p73 | Combination Index (Huh7 [4]; in combination with KX01 (KXO1)): 0.96 | Combination Index (Huh7 [4]; in combination with KX01 (KXO1), listed as 0095): 1.36 | Synergy (Huh7 [4]; in combination with KXO1): Additive | Combination Index (Huh7 [4]; [7]): 0.65 | Combination Index (Huh7 [4]; in combination with Taxol (paclitaxel), listed as 0095): 1.05 | Combination Index (Huh7 [4]; [6]): 0.76 | Synergy (Huh7 [4]; in combination with paclitaxel): Yes | Combination Index (Huh7 [4]; in combination with sorafenib): 1.05 | Synergy (Huh7 [4]; in combination with sorafenib): Additive | Combination Index (Huh7 [4]; in combination with sorafenib, listed as 0095): 0.96 | Combination Index (Huh7 [4]; in combination with topotecan): 0.75 | Synergy (Huh7 [4]; in combination with topotecan (50.91 nM)): Yes | Combination Index (Huh7 [4]; [8]): 0.76 | Synergy (Huh7 [4]; [8]): Yes | Combination Index (Hep3B; in combination with KX01): 2.79 | Combination Index (Hep3B; in combination with Taxol): 2.40 | Combination Index (Hep3B; [6]): 2.27 | Combination Index (Hep3B; in combination with sorafenib): 1.20 | Combination Index (Hep3B; in combination with topotecan): 1.48 | Combination Index (MB-231; [7]): 1.21 | Combination Index (MB-231; [6]): 1.26 | Combination Index (MB-231; in combination with topotecan): 0.71 | Synergy (MB-231; in combination with topotecan): Yes | Combination Index (K562 [5]; [7]): 1.64 | Combination Index (K562 [5]; [6]): 0.49 | Synergy (K562 [5]; [6]): Yes | Combination Index (K562 [5]; in combination with topotecan): 1.38 | Combination Index (MB-468; in combination with Taxol): 1.08 | Combination Index (MB-468; [6]): 0.87 | Synergy (MB-468; [6]): Yes | Combination Index (MB-468; in combination with topotecan): 0.88 | Synergy (MB-468; in combination with topotecan): Yes

COc1ccc(Oc2cc(C)c(-c3csc(NC(=O)c4ccncc4)n3)c(C)c2)cc1 [compound 101001, N-(4-(4-(4-methoxyphenoxy)-2,6-dimethylphenyl)thiazol-2-yl)isonicotinamide]
GI50 (K562R; Homo sapiens, K-562R): 29.6 nM | GI50 (NCI/ADR-RES; Homo sapiens): 28.6 nM | GI50 (Huh7 [1]; Homo sapiens, Huh-7, 96 h): 84.3 nM | GI50 (K562 [2]; K562, 96 hours, listed as 110001): 40.6 nM and 43.8 nM | GI50 (MDA-MB-231; Homo sapiens, MDA-MB-231, 96 h): 43.3 nM | GI50 (MDA-MB-231; MDA-MB-231, 96 hours, listed as 110001): 42.5 nM | GI50 (MDA-MB-468): 33.6 nM | Synergy (Huh7 [4]; in combination with KXO1): Additive | Synergy (Huh7 [4]; [6]): Yes | Synergy (Huh7 [4]; in combination with paclitaxel): Yes | Synergy (Huh7 [4]; in combination with sorafenib): Antagonistic | Synergy (Hep3B; in combination with sorafenib): Antagonistic | Synergy (MB-231; in combination with paclitaxel): Yes | Synergy (MB-231; in combination with topotecan): Yes | Synergy (K562 [5]; [6]): Yes | Synergy (K562 [5]; in combination with paclitaxel): Yes | Synergy (MB-468; [6]): Yes | Synergy (MB-468; in combination with topotecan): Yes
